Test results reported in the CheMixHub ionic liquid set.

Experiment: xn = mol fraction of the nth substance listed

C[N+](C)(C)CCC[n+]1ccccc1.N#C[N-]C#N.N#C[N-]C#N + CC#N
100 kPa
Conditions	viscosity [mPa·s]
283.15 K, x1 = 0.7001	857
288.15 K, x1 = 0.8997	1336
288.15 K, x1 = 1	3879
293.15 K, x1 = 0.1999	10.8
293.15 K, x1 = 0.3997	75.8
293.15 K, x1 = 1	2191
298.15 K, x1 = 0.8997	561
303.15 K, x1 = 0.0999	3
303.15 K, x1 = 0.2998	24.3
303.15 K, x1 = 0.7998	271
308.15 K, x1 = 0.1999	7.71
318.15 K, x1 = 0.2998	16
323.15 K, x1 = 0.0999	2.43
323.15 K, x1 = 1	210
333.15 K, x1 = 0.1999	5.08
333.15 K, x1 = 0.6002	37.6

C[n+]1ccn(CCCC#N)c1.O=S(=O)([O-])C(F)(F)F + CC#N
101 kPa
Conditions	electrical conductivity [S/m]	viscosity [mPa·s]
288.15 K, x1 = 0.1002	2.7	1.65
288.15 K, x1 = 0.2994	1.04	16.49
288.15 K, x1 = 0.5	0.185	109.8
293.15 K, x1 = 0.6005	0.22	119.8
298.15 K, x1 = 0.7996	0.114	307
303.15 K, x1 = 0.9007	0.082	330
303.15 K, x1 = 1	0.06	422
308.15 K, x1 = 0.2994	1.7	9.19
308.15 K, x1 = 1	0.08	310
313.15 K, x1 = 0.2002	2.88	3.74
313.15 K, x1 = 0.5	0.575	36.34
313.15 K, x1 = 0.7996	0.239	133.1
318.15 K, x1 = 0.1002	3.76	1.06
318.15 K, x1 = 0.5	0.679	29.94
318.15 K, x1 = 0.698	0.351	73.7
318.15 K, x1 = 0.9007	0.168	135
323.15 K, x1 = 0.1002	3.95	0.99
323.15 K, x1 = 0.6005	0.7	32.11

NCCN1CCNCC1 + CC(=O)[O-].CCCC[n+]1ccn(C)c1 + O
viscosity [mPa·s], 101 kPa
Conditions	298.15 K	303.15 K	308.15 K	313.15 K	318.15 K	323.15 K	328.15 K	333.15 K
x2 = 0.03479, x1 = 0.0177	3.7	3.32	3.04	2.97	2.6	2.31	2.16	1.97
x2 = 0.03897, x1 = 0.01333	3.73	3.62	3.32	2.99	2.61	2.41	2.31	2.11
x2 = 0.04311, x1 = 0.00893	3.76	3.66	3.32	3.02	2.64	2.48	2.34	2.21

c1c[nH]cn1 + CC(C)C[P+](C)(CC(C)C)CC(C)C.Cc1ccc(S(=O)(=O)[O-])cc1
Conditions	viscosity [mPa·s]
313.09 K, 101.33 kPa, x2 = 0.5	181

CC[n+]1ccccc1.N#C[N-]C#N + CC(C)O
100 kPa
Conditions	viscosity [mPa·s]
288.15 K, x2 = 0.2997	15.1
293.15 K, x2 = 0.1055	18
298.15 K, x2 = 0.4023	9.28
303.15 K, x2 = 0.5998	5.49
308.15 K, x2 = 0.7006	3.8
308.15 K, x2 = 0.8997	2.27
313.15 K, x2 = 0	12.5
313.15 K, x2 = 0.5998	4.42
313.15 K, x2 = 0.7006	3.43
313.15 K, x2 = 0.8007	2.66
318.15 K, x2 = 0.5998	3.99
318.15 K, x2 = 0.7006	3.11

CCCCCCCC[N+](C)(CCCCCCCC)CCCCCCCC.[Br-] + CCCCCCCCCC(=O)O
100 kPa, x1 = 0.3333
Conditions	viscosity [mPa·s]
293 K	810
298 K	570
303 K	410
308 K	310
333 K	84

CC[N+](CC)(CC)CC.[Br-] + CCCCCCCCCCCCCCn1cc[n+](C)c1.[Br-] + O
electrical conductivity [S/m], 101 kPa, frequency 0.001 MHz
Conditions	298.15 K	308.15 K	318.15 K
x2 = 0, x1 = 1.802e-05	0.0115	0.0142	0.0177
x2 = 0, x1 = 3.604e-05	0.0198	0.024	0.0294
x2 = 0, x1 = 9.009e-05	0.0417	0.0509	0.0613
